Experimental data reported in EP0354323A2, “Antidiabetic phosphates” (AMERICAN CYANAMID COMPANY, priority 1988, dated 1990).
Where a name gives a salt, the structure may show the parent alone. Read-outs that look alike come from different tables or passages of the source.

What was measured:
Assay type in all cases: biochemical
[1] = target: T1, purified rat liver 6-phosphofructo-1-kinase (Rattus norvegicus, UniProt P30835); test: Stimulation of 6-phosphofructo-1-kinase (PFK), aldolase-coupled spectrophotometric assay; conditions: stimulation of enzyme; pH 7.3, 30°C, 1 mM ATP, reaction initiated with 0.2 mM fructose-6-phosphate; read-out: PFK ED₅₀
T1 construct: 0.1U of purified rat liver 6-phosphofructo-1-kinase; from tissue; host or cells: rat liver
T1 sequence (P30835 2-780 limits assumed): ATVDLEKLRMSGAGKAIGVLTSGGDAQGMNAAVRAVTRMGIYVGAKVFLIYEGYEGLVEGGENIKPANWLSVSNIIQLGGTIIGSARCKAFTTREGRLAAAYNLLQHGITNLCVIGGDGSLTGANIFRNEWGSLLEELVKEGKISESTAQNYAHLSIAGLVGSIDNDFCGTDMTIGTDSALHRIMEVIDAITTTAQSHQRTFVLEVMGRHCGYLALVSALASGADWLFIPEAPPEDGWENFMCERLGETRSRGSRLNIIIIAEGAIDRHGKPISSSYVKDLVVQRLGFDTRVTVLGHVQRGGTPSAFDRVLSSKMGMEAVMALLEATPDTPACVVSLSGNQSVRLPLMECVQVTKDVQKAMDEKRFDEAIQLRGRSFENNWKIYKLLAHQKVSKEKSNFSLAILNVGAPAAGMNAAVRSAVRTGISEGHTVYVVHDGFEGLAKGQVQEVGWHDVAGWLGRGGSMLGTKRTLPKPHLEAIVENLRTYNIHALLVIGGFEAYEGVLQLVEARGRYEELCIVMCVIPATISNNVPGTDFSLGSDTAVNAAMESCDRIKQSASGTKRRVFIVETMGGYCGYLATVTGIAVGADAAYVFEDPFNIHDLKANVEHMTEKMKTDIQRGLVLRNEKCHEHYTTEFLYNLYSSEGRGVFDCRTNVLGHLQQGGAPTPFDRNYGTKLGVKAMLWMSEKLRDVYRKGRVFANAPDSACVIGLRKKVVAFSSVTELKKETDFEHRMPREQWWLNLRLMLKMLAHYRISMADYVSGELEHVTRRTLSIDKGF
Protocol: (§1) The novel compounds of this invention were tested for their ability to stimulate the enzyme 6-phosphofructo-1-kinase ("PFK") and for their ability to inhibit the enzyme fructose-1,6-bisphosphatase ("FBP") using the procedures described below.
Effects on the activity of PFK were determined using an aldolase-coupled, spectrophotometric assay. The assay mixture contained: 50 mM N-tris(hydroxymethyl)methyl-2-aminoethanesulfonic acid, hydrochloride ("TES-HCl", pH 7.3); 1mM ethylenediaminetetraacetic acid ("EDTA"); 6 mM magnesium chloride; 2.5 mM dithiothreitol; 0.165 mM nicotinamide adenine dinucleotide ("NADH"); 1mM adenosine triphosphate ("ATP"); 0.04U aldolase; 0.4U triose phosphate isomerase; 1.5U alpha-glycerolphosphate dehydrogenase; 0.1U of purified rat liver 6-phosphofructo-1-kinase; and various concentrations of the test compound, all in a final volume of 1 ml. The mixture was preincubated for 3 minutes at 30°C and then the reaction was initiated with 0.2 mM fructose-6-phosphate. The rate of decrease in absorbance at 340 nm was measured at 30°C with a recording spectrophotometer.

purified rat liver FBP = target: T2, purified rat liver FBP (Rattus norvegicus, UniProt P19112); test: Inhibition of fructose-1,6-bisphosphatase (FBP), spectrophotometric assay
T2 construct: 0.02U of purified rat liver FBP; from tissue; host or cells: rat liver
T2 sequence (P19112 2-363 limits assumed): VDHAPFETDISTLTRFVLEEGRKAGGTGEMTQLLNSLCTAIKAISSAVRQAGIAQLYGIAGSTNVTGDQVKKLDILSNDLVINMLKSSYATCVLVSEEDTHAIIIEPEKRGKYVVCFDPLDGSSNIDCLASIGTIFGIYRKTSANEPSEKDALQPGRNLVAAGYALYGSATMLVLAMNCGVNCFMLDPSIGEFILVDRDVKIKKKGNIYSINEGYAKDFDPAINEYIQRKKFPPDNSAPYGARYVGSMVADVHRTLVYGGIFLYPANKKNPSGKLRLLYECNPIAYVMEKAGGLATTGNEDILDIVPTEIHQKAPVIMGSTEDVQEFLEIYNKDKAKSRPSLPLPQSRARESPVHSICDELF
Protocol: as §1
Effects on the activity of FBP were determined using a spectrophotometric assay. The assay mixture contained: 100 mM tris(hydroxymethyl)aminomethane, hydrochloride ("TRIS-HCl", pH 7.4); 2.5 mM beta-mercaptoethanol; 2 mM magnesium chloride; 0.05 mM EDTA; 0.2 mM nicotinamide adenine dinucleotide phosphate ("NADP"); 10 U phosphoglucose isomerase; 5 U glucose-6-phosphate dehydrogenase; 0.02U of purified rat liver FBP; and various concentrations of the test compound, all in a final volume of 1 ml. The mixture was preincubated for 3 minutes at 30°C and then the reaction was initiated with 0.02 mM fructose-1,6-bisphosphate. The rate of increase in absorbance at 340 nm was measured at 30°C with a recording spectrophotometer.

[2] = target: T3, partially purified potato tuber 6-phosphofructo-1-kinase (Solanum tuberosum, UniProt P21342+P21343); test: Stimulation of pyrophosphate-dependent 6-phosphofructo-1-kinase (PPi-PFK), aldolase-coupled spectrophotometric assay; conditions: stimulation of enzyme; pH 8.0, 30°C, 1 mM fructose-6-phosphate, reaction initiated with 0.5 mM sodium pyrophosphate; read-out: PPi-PFK ED₅₀
T3 construct: 0.1U of partially purified potato tuber; from tissue; host or cells: potato tuber
T3 sequence (P21343 1-569): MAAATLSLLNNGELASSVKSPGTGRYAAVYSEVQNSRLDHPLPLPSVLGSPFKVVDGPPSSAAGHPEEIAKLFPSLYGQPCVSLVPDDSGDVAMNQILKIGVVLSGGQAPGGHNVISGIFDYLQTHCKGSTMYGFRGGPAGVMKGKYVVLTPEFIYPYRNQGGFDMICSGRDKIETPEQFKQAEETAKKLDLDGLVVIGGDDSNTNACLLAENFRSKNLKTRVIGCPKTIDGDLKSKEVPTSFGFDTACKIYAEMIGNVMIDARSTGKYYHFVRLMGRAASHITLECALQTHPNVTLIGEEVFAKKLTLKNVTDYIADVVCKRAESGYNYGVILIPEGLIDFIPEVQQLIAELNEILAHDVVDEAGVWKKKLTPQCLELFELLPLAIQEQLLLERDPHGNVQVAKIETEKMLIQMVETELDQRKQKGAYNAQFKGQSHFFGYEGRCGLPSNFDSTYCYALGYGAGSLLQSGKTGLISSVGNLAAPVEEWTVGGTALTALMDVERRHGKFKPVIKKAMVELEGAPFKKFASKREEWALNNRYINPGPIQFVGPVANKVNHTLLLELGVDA
T3 sequence (P21342 1-616): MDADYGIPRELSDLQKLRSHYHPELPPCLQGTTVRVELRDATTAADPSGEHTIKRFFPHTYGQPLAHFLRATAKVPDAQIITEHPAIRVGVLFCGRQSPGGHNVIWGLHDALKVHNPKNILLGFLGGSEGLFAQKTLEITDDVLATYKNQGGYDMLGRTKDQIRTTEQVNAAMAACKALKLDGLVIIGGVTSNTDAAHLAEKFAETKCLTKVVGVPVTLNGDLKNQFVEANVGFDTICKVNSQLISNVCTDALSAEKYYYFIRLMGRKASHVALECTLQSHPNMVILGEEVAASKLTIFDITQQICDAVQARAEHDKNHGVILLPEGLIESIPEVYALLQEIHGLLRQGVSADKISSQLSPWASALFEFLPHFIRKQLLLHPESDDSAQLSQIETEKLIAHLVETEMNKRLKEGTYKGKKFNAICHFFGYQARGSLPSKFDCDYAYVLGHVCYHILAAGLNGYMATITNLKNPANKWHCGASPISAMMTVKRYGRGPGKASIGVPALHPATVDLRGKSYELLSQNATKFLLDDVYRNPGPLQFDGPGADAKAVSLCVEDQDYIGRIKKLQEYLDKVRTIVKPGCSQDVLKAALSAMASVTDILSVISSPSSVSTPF
Protocol: The novel compounds of this invention were also tested for their ability to stimulate the enzyme pyrophosphate-dependent 6-phosphofructo-1-kinase ("PPi-PFK"), a growth regulator in plants, using the procedures described below.
Effects on the activity of PPi-PFK were determined using an aldolase-coupled, spectrophotometric assay. The assay mixture contained: 50 mM N-tris(hydroxymethyl)methyl-2-aminoethanesulfonic acid, hydrochloride ("TES-HCl", pH 8.0); 1mM ethylenediaminetetraacetic acid ("EDTA"); 6 mM magnesium chloride; 2.5 mM dithiothreitol; 0.165 mM nicotinamide adenine dinucleotide ("NADH"); 1mM fructose-6-phosphate; 0.04U aldolase; 0.4U triose phosphate isomerase; 1.5U alpha-glycerolphosphate dehydrogenase; 0.1U of partially purified potato tuber 6-phosphofructo-1-kinase; and various concentrations of the test compound, all in a final volume of 1 ml. The mixture was preincubated for 3 minutes at 30°C and then the reaction was initiated with 0.5 mM sodium pyrophosphate. The rate of decrease in absorbance at 340 nm was measured at 30°C with a recording spectrophotometer.

[3] = inhibition of enzyme, pH 7.4, 30°C, reaction initiated with 0.02 mM fructose-1,6-bisphosphate, read-out: FBP IC₅₀

Compound | EC50 [1] | IC50 (purified rat liver FBP; [3]) | EC50 [2] | IC50 (purified rat liver FBP)
O=P(O)(O)OC[C@H]1O[C@](OP(=O)(O)O)(C(F)F)[C@@H](O)[C@@H]1O [1-Deoxy-1,1-difluoro-D-fructofuranose, 2,6-bis (dihydrogen phosphate), β-anomer, disodium salt] | 0.15 µM | > 800 µM |  | 
O=P(O)(O)OC[C@H]1O[C@@](OP(=O)(O)O)(C(F)F)[C@@H](O)[C@@H]1O [1-Deoxy-1,1-difluoro-D-fructofuranose, 2,6-bis(dihydrogen phosphate), α-anomer, disodium salt] | 0.05 µM | > 800 µM |  | 
O=P(O)(O)OC[C@H]1O[C@@](OP(=O)(O)O)(C(F)F)[C@@H](O)[C@@H]1O [1-Deoxy-1,1-difluoro-D-fructofuranose, 2,6-bis(dihydrogen phosphate), α-anomer, tetrasodium salt] |  |  | 15 µM | 
O=P(O)(O)OC[C@H]1O[C@](OP(=O)(O)O)(C(F)F)[C@@H](O)[C@@H]1O [1-Deoxy-1,1-difluoro-D-fructofuranose, 2,6-bis(dihydrogen phosphate), β-anomer, tetrasodium salt] |  |  | 0.3 µM | 
O=P(O)(O)OC[C@H]1OC(O)(C(F)F)[C@@H](O)[C@@H]1O (stereo partly drawn) [1-Deoxy-1,1-difluoro-D-fructofuranose, 6-(dihydrogen phosphate), sodium salt] | 300 µM | 450 µM | 1000 µM | 
O=P(O)(O)OC[C@H]1O[C@@](CO)(COP(=O)(O)O)[C@@H](O)[C@@H]1O [2,5-Anhydro-2-C-(hydroxymethyl)-D-glucitol, 1,6-bis(dihydrogen phosphate)] | 6.3 µM |  | 0.4 µM | 
O=P(O)(O)OC[C@H]1O[C@](CO)(COP(=O)(O)O)[C@@H](O)[C@@H]1O [2,5-Anhydro-2-C-[(phosphonooxy)methyl]-D-glucitol, 6-(dihydrogen phosphate)] | 2 µM |  | 6.6 µM | 
O=P(O)(O)OC[C@@H]1O[C@H](COP(=O)(O)O)[C@@H](O)[C@@H]1O [2,5-Anhydro-D-glucitol, 1,6-bis(dihydrogen phosphate)] | 2.2 µM | 32 µM |  | 
O=P(O)(O)OC[C@@H](O)[C@H]1O[C@H](COP(=O)(O)O)[C@@H](O)[C@@H]1O [2,5-Anhydro-D-glycero-D-manno-heptitol, 1,7-bis(dihydrogen phosphate)] | 2.1 µM |  |  | 
O=P(O)(O)OC[C@H]1O[C@H](COP(=O)(O)O)[C@@H](O)[C@@H]1O [2,5-Anhydro-D-mannitol, 1,6-bis(dihydrogen phosphate)] | 0.26 µM |  |  | 2 µM
O=P(O)(O)OCC[C@@]1(CO)O[C@H](COP(=O)(O)O)[C@@H](O)[C@@H]1O [3,6-Anhydro-2-deoxy-3-C-(hydroxymethyl)-D-manno-hepitol, 1,7-bis(dihydrogen phosphate)] | 7.2 µM | 100 µM |  | 
O=P(O)(O)OCC[C@@H]1O[C@H](COP(=O)(O)O)[C@@H](O)[C@@H]1O [3,6-Anhydro-2-deoxy-D-gluco-heptitol, 1,7-bis(dihydrogen phosphate)] | 4 µM | 230 µM |  | 
O=P(O)(O)OCC[C@H]1O[C@H](COP(=O)(O)O)[C@@H](O)[C@@H]1O [3,6-Anhydro-2-deoxy-D-manno-heptitol, 1,7-bis(dihydrogen phosphate)] | 0.56 µM | 50 µM |  | 
O=P(O)(O)OCCCC1O[C@H](COP(=O)(O)O)[C@@H](O)[C@@H]1O (stereo partly drawn) [4,7-Anhydro-2,3-dideoxy-D-gluco-octitol, 1,8-bis(dihydrogen phosphate), and 4,7-Anhydro-2,3-dideoxy-D-manno-octitol, 1,8-bis(dihydrogen phosphate)] | 12 µM |  |  | 
O=P(O)(O)OC[C@H]1O[C@@](CO)(OP(=O)(O)O)[C@@H](O)[C@@H]1O [Beta-D-fructose-2,6-bisphosphate, reference compound] | 0.02 µM | 3 µM | 0.004 µM | 
